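Compound exposure: 48 hours, 5 concentrations, 96-well plates. GI50 = concentration required for 50% inhibition of growth. The concentration for full growth arrest is given as TGI.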
How the values were obtained:
Assay in all cases: NCI anticancer screen, dose series, 48 h
[1] = system: MALME-3M melanoma
[2] = system: A498 renal
[3] = system: IGROV1 ovarian
[4] = system: SNB-75 CNS
[5] = system: MOLT-4 leukemia
[6] = system: LOX IMVI melanoma
[7] = system: MCF7 breast
[8] = system: MDA-MB-435
[9] = system: RXF 393 renal
[10] = system: OVCAR-4 ovarian

## CC(=O)OCCC/C(=C/c1cc2ccccc2c2ccccc12)[N+](=O)[O-]
[1]
  GI50: 1550 nM
  TGI: 3380 nM
[2]
  GI50: 1380 nM
  TGI: 2720 nM
[3]
  GI50: 1060 nM
  TGI: 2810 nM
[4]
  GI50: 606 nM
  TGI: 2170 nM
[5]
  GI50: 2860 nM
  TGI: > 23000 nM
[6]
  GI50: 423 nM
  TGI: 1080 nM
[7]
  GI50: 545 nM
  TGI: 1950 nM
[8]
  GI50: 1460 nM
  TGI: 3160 nM
[9]
  GI50: 1400 nM
  TGI: 2910 nM
[10]
  GI50: 1750 nM
  TGI: 3290 nM

## Nc1n[nH]c2cc(F)c([C@@H]3Nc4c(F)cc5[nH]ncc5c4[C@H]4C5CCC(C5)[C@@H]34)cc12 (some centres undefined)
[1]
  GI50: 948 nM
  TGI: 14300 nM
[2]
  GI50: 63 nM
  TGI: 212 nM
[3]
  GI50: 130 nM
  TGI: 5040 nM
[4]
  GI50: 89.4 nM
  TGI: 635 nM
[5]
  GI50: 145 nM
  TGI: 14100 nM
[6]
  GI50: 144 nM
  TGI: 4410 nM
[7]
  GI50: 118 nM
  TGI: 6320 nM
[8]
  GI50: 72.7 nM
  TGI: 195 nM
[10]
  GI50: 566 nM
  TGI: 33300 nM

## COc1ccc(OC)c(-c2nc3sc(C)cn3c2/C=C2\C(=O)N(C)c3ccccc32)c1
[1]
  GI50: 28500 nM
  TGI: 70100 nM
[2]
  GI50: 29300 nM
  TGI: 70600 nM
[3]
  GI50: 22000 nM
  TGI: 66500 nM
[4]
  GI50: 17900 nM
  TGI: 47900 nM
[5]
  GI50: 15900 nM
  TGI: 59000 nM
[6]
  GI50: 17300 nM
  TGI: 37900 nM
[7]
  GI50: 12700 nM
  TGI: 41800 nM
[8]
  GI50: 4040 nM
  TGI: 18600 nM
[10]
  GI50: 34100 nM
  TGI: > 100000 nM

## COC(=O)C[C@@H]1CC=CC(=O)/C1=C(O)/C=C/c1ccccc1
[1]
  GI50: 1560 nM
  TGI: 3330 nM
[2]
  GI50: 1870 nM
  TGI: 3820 nM
[3]
  GI50: 216 nM
  TGI: 520 nM
[4]
  GI50: 1050 nM
  TGI: 3210 nM
[5]
  GI50: 1680 nM
  TGI: 5460 nM
[6]
  GI50: 172 nM
  TGI: 332 nM
[7]
  GI50: 374 nM
  TGI: 3040 nM
[8]
  GI50: 357 nM
  TGI: 1410 nM
[9]
  GI50: 295 nM
  TGI: 888 nM
[10]
  GI50: 1540 nM
  TGI: 2960 nM

## COc1ccc2cn3c4ccc(O)cc4[nH]c(=O)c3c2c1
[2]
  GI50: 404 nM
  TGI: 17000 nM
[3]
  GI50: 277 nM
  TGI: 17300 nM
[4]
  GI50: 162 nM
  TGI: 18500 nM
[5]
  GI50: 308 nM
  TGI: 16700 nM
[6]
  GI50: 101 nM
  TGI: 4930 nM
[7]
  GI50: 236 nM
  TGI: 14600 nM
[8]
  GI50: 24.8 nM
  TGI: 69.2 nM
[9]
  GI50: 44.7 nM
  TGI: 1040 nM
[10]
  GI50: 9510 nM
  TGI: 23300 nM

## COc1ccc2c(ccc3oc([N+](=O)[O-])cc32)c1
[1]
  GI50: 137 nM
  TGI: 314 nM
[2]
  GI50: 85.2 nM
  TGI: 305 nM
[3]
  GI50: 199 nM
  TGI: 3470 nM
[4]
  GI50: 201 nM
  TGI: 573 nM
[5]
  GI50: 37.8 nM
  TGI: 2690 nM
[6]
  GI50: 55.1 nM
  TGI: 312 nM
[7]
  GI50: 176 nM
  TGI: 3000 nM
[8]
  GI50: 47 nM
  TGI: 186 nM
[9]
  GI50: 70.2 nM
  TGI: 223 nM
[10]
  GI50: 422 nM
  TGI: 2010 nM

From PubChem BioAssay (NCI)
